Assays:
[1] = tested on: Bacillus subtilis; experiment: Antibacterial activity against Bacillus subtilis at 10 ug/ml for 24 hrs by disc diffusion method; assay type: functional
[2] = tested on: Micrococcus; experiment: Antibacterial activity against Micrococcus sp. at 10 ug/ml for 24 hrs by disc diffusion method; assay type: functional
[3] = tested on: Staphylococcus aureus; experiment: Antibacterial activity against Staphylococcus aureus at 10 ug/ml for 24 hrs by disc diffusion method; assay type: functional
[4] = tested on: Pseudomonas aeruginosa; experiment: Antibacterial activity against Pseudomonas aeruginosa at 10 ug/ml for 24 hrs by disc diffusion method; assay type: functional
[5] = tested on: Escherichia coli; experiment: Antibacterial activity against Escherichia coli at 10 ug/ml for 24 hrs by disc diffusion method; assay type: functional
[6] = tested on: Bacillus cereus; experiment: Antibacterial activity against Bacillus cereus at 10 ug/ml for 24 hrs by disc diffusion method; assay type: functional
[7] = tested on: Shigella dysenteriae; experiment: Antibacterial activity against Shigella dysenteriae at 10 ug/ml for 24 hrs by disc diffusion method; assay type: functional
[8] = tested on: Candida albicans; experiment: Antifungal activity against Candida albicans at 10 ug/ml for 48 hrs by disc diffusion method; assay type: functional
[9] = tested on: Penicillium; experiment: Antifungal activity against Penicillium at 10 ug/ml for 48 hrs by disc diffusion method; assay type: functional
[10] = tested on: Aspergillus niger; experiment: Antifungal activity against Aspergillus niger at 10 ug/ml for 48 hrs by disc diffusion method; assay type: functional
[11] = tested on: Artemia salina; experiment: Toxicity against Artemia salina; assay type: organism-based; settings: in vivo

Row | Compound | Activity [1] [mm] | Activity [2] [mm] | Activity [3] [mm] | Activity [4] [mm] | Activity [5] [mm] | Activity [6] [mm] | Activity [7] [mm] | Activity [8] [mm] | Activity [9] [mm] | Activity [10] [mm] | Activity [11]
1 | GENTAMICIN | 20 | 20 | 20 | 20 | 20 | 20 | 20 | – | – | – | –
2 | Cc1cc2c(O)c(c1)/C=N\NC(=O)c1ccc(cc1)C(=O)N/N=C\c1cc(O)c(cc1C)/C=N\NC(=O)c1ccc(cc1)C(=O)NN=C2 | 20 | 14 | 10 | 14 | 16 | 16 | 16 | 16 | 20 | 22 | Non-toxic
3 | OC(Cn1cncn1)(Cn1cncn1)c1ccc(F)cc1F [FLUCONAZOLE] | – | – | – | – | – | – | – | 24 | 24 | 24 | –

— ChEMBL document CHEMBL1153614, “Synthesis, spectral characterization, in-vitro microbiological evaluation and cytotoxic activities of novel macrocyclic bis hydrazone” (Eur J Med Chem, 2009)
